Laboratory results published in ChEMBL document CHEMBL5506043, “A β-Carboline Derivate PAD4 Inhibitor Reshapes Neutrophil Phenotype and Improves the Tumor Immune Microenvironment against Triple-Negative Breast Cancer” (J Med Chem, 2024).
The source made the active and inactive calls. No cut-off for these calls is given here.

How the values were obtained:
[1] = molecular target: Protein-arginine deiminase type-4 (Mus musculus) (UniProt Q9Z183); experiment: Inhibition of PAD4 in mouse 4T1 cells assessed as reduction in histone H3 citrullination measured after 48 hrs by immunoblot analysis; assay type: cell-based; details: dose 0.5-2 µM
[2] = Toxicity in female BALB/c mouse implanted with mouse orthotopic 4T1-Luc cells assessed as reduction in body weight at 1 to 10 mg/kg, iv administered via tail vein every 2 days for 9 times for 17 days and measured every 2 days; assay type: organism-based; details: in vivo, 408 h, dose 1-10 mg/kg, time 17 day
[3] = AUC (0 to t) in male Sprague-Dawley rat at 3.5 mg/kg, iv by LC-MS/MS analysis; assay type: ADME, organism-based; details: in vivo
[4] = Toxicity in female BALB/c mouse implanted with mouse orthotopic 4T1-Luc cells assessed as morphological changes in heart at 1 to 10 mg/kg, iv administered via tail vein every 2 days for 9 times for 17 days by H and E staining based analysis; assay type: organism-based; details: in vivo, 408 h, dose 1-10 mg/kg, time 17 day
[5] = tested on: Neutrophil; experiment: In vivo inhibition of PAD4 in female BALB/c mouse implanted with mouse orthotopic 4T1-Luc cells assessed as inhibition of neutrophil extracellular traps formation in tumor at 10 mg/kg, iv administered via tail vein every 2 days for 9 times for 17 days by immunohistochemical staining based analysis; assay type: functional, organism-based; details: time 17.0 day
[6] = Toxicity in female BALB/c mouse implanted with mouse orthotopic 4T1-Luc cells assessed as morphological changes in liver at 1 to 10 mg/kg, iv administered via tail vein every 2 days for 9 times for 17 days by H and E staining based analysis; assay type: organism-based; details: in vivo, 408 h, dose 1-10 mg/kg, time 17 day
[7] = tested on: Mus musculus; experiment: (§1) Induction of tumor microenvironment in female BALB/c mouse implanted with mouse orthotopic 4T1-Luc cells assessed as decrease in proportion of PD-L1-positive/MHC-II-positive tumor-associated neutrophils at 1 to 10 mg/kg, iv administered via tail vein every 2 days for 9 times for 17 days by single-cell mass spectrometry flow cytometry analysis; assay type: functional, organism-based; details: dose 1-10 mg/kg, time 17.0 day
[8] = Cytotoxicity against human MCF-10A cells assessed as inhibition of cell growth incubated for 48 hrs by MTT assay; assay type: toxicity, cell-based
[9] = tested on: 4T1; experiment: Upregulation of feedback regulation-mediated PAD4 protein expression in mouse 4T1 cells at 0.5 to 2 uM measured after 48 hrs by immunoblot analysis; assay type: functional, cell-based; details: dose 0.5-2 µM
[10] = tested on: MDA-MB-468; experiment: Antiproliferative activity against human MDA-MB-468 cells assessed as inhibition of cell growth incubated for 48 hrs by MTT assay; assay type: functional, cell-based; details: MDA-MB-468, 48 h
[11] = tested on: Mus musculus; experiment: In vivo inhibition of PAD4 in female BALB/c mouse implanted with mouse orthotopic 4T1-Luc cells assessed as inhibition of histone H3 citrullination in tumor at 10 mg/kg, iv administered via tail vein every 2 days for 9 times for 17 days by immunohistochemical staining based analysis; assay type: functional, organism-based; details: time 17.0 day
[12] = Antitumor activity against mouse orthotopic 4T1-Luc cells implanted in female BALB/c mouse assessed as tumor growth inhibition at 10 mg/kg, iv administered via tail vein every 2 days for 9 times for 17 days and measured every 2 days relative to control; assay type: functional; details: 408 h, time 17 day, read-out: TGI
[13] = tested on: Mus musculus; experiment: Induction of tumor microenvironment in female BALB/c mouse implanted with mouse orthotopic 4T1-Luc cells assessed as increase in MHC-II expression for MHC-II-negative tumor-associated neutrophils at 1 to 10 mg/kg, iv administered via tail vein every 2 days for 9 times for 17 days; assay type: functional, organism-based; details: dose 1-10 mg/kg, time 17.0 day
[14] = tested on: Mus musculus; experiment: as §1, with “m1 macrophage polarization by measuring upregulation” for “decrease in proportion”, “conventional dendritic cells” for “PD-L1-positive/MHC-II-positive tumor-associated neutrophils”; assay type: functional, organism-based; details: dose 1-10 mg/kg, time 17.0 day
[15] = Toxicity in female BALB/c mouse implanted with mouse orthotopic 4T1-Luc cells assessed as effect on serum AST level at 1 to 10 mg/kg, iv administered via tail vein every 2 days for 9 times for 17 days; assay type: organism-based; details: in vivo, 408 h, dose 1-10 mg/kg, time 17 day
[16] = tested on: Mus musculus; experiment: Induction of tumor microenvironment in female BALB/c mouse implanted with mouse orthotopic 4T1-Luc cells assessed as decrease in PD-L1 expression for PD-L1-positive/MHC-II-positive tumor-associated neutrophils at 1 to 10 mg/kg, iv administered via tail vein every 2 days for 9 times for 17 days; assay type: functional, organism-based; details: dose 1-10 mg/kg, time 17.0 day

Sequence of Protein-arginine deiminase type-4 (Mus musculus) (Q9Z183 whole entry): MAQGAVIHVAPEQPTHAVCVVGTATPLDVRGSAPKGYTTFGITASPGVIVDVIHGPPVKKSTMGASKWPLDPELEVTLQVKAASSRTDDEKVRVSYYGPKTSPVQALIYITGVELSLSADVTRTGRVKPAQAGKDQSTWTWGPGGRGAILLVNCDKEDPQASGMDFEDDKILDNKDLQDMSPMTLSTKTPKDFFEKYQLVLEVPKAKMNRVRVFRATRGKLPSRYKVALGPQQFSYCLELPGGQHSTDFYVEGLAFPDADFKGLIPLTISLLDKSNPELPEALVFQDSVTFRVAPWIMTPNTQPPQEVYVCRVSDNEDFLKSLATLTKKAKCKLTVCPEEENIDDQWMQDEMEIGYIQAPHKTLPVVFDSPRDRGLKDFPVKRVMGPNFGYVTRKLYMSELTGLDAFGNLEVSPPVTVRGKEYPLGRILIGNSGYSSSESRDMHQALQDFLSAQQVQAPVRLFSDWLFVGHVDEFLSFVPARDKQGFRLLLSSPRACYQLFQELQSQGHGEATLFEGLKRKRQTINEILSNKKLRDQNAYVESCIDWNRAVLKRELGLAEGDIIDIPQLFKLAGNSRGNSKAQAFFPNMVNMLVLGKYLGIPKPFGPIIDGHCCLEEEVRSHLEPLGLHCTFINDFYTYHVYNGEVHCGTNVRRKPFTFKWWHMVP

## N=C(CCl)NCCC[C@H](NC(=O)c1cc2c([nH]c3ccccc32)c(-c2ccccc2)n1)C(=O)NCc1ccccc1
[1]
  inhibition: Dose-Dependent Effect
[2]
  Activity: Non-Toxic
[3]
  AUC(0-t): 9.53 ng·h/mL
[4]
  Activity: Non-Toxic
[5]
  inhibition: Active
[6]
  Activity: Non-Toxic
[7]
  Activity: Active
[8]
  IC50 at 48 h: 8.39 µM
[9]
  Activity: Active
[10]
  IC50: 2.34 µM
[11]
  inhibition: Active
[12]
  inhibition in vivo at 10 mg/kg: 61.8%
[13]
  Activity: Active
[14]
  Activity: Active
[15]
  Activity: Non-Toxic
[16]
  Activity: Active
